The results in this text go back to ChEMBL document CHEMBL3988442, “University of Dundee, Small-Polar-MMV Screening Library” (2021).

By IC50 is commonly meant the concentration needed to halve the response being measured. Lower therefore signals higher potency.

The target in this assay is T1, Ubiquitin-activating enzyme e1, putative (Leishmania donovani (strain BPK282A1), UniProt E9BSI1).
T1 sequence (E9BSI1 whole entry): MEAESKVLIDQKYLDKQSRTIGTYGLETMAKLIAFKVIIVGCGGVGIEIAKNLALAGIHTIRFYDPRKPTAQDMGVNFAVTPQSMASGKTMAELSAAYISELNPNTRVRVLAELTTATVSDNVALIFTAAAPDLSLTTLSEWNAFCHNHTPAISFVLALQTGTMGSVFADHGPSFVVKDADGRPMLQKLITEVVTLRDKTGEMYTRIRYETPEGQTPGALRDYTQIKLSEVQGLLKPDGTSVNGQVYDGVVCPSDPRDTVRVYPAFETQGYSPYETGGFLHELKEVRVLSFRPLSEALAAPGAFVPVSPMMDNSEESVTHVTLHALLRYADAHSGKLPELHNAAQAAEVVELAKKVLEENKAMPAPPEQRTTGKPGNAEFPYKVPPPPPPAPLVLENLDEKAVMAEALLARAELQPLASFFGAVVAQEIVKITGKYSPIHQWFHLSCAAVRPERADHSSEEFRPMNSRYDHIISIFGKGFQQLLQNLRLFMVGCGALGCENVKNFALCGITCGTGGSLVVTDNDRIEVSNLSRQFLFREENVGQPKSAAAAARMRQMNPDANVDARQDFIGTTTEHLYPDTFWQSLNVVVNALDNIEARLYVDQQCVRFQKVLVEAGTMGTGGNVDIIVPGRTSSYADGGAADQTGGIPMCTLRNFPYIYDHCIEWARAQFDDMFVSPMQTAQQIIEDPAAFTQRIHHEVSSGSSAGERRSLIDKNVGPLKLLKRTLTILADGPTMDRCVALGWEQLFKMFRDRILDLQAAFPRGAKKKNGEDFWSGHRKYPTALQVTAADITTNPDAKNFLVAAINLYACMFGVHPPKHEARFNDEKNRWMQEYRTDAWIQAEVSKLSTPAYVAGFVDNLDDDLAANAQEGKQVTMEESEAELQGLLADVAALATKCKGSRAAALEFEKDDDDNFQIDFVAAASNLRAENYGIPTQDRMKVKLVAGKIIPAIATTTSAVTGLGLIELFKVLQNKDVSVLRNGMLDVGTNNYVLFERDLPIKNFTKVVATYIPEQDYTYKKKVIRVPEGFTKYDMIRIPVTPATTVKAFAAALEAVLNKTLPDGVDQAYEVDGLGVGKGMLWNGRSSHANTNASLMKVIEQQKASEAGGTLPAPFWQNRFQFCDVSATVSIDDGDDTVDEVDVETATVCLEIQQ
As to the kind of experiment: Leishmania donovani Ubiquitin Activating Enzyme (LdE1). It is filed as functional.

The molecule `CC[C@@H]1N(CC2CCC2)CCC[C@]12CCC(=O)N2Cc1ccncc1` showed an IC50 above 100 µM.

For `Cc1ccc(C(=O)N2C[C@@H]3COC[C@]3(COCc3cccnc3)C2)cn1`, the IC50 was above 100 µM. The molecule `Cc1nc(C(=O)N2C[C@@H]3COC[C@]3(COCc3cccnc3)C2)cs1` had an IC50 above 100 µM.

On to `O=C(c1ncccn1)N1C[C@@H]2COC[C@]2(COCc2cccnc2)C1`, for which the IC50 is above 100 µM.

Molecule `CC[C@H]1NCCC[C@]12CCC(=O)N2Cc1ccncc1` gave an IC50 above 100 µM.

For `Cn1cc(C(=O)N2C[C@@H]3COC[C@]3(COCc3cccnc3)C2)cn1`, the IC50 is above 100 µM.

`COCCC(=O)N1C[C@@H]2COC[C@]2(COCc2cccnc2)C1` showed an IC50 above 100 µM. Molecule `Cc1cc(C(=O)N2C[C@@H]3COC[C@]3(COCc3cccnc3)C2)no1` gave an IC50 above 100 µM. For the molecule `CC(C)N1CCC(Cc2cc(-c3cccc(C(=O)O)c3)ncn2)CC1`, the IC50 is above 100 µM.

Consider `CC(C)N1CCC(Cc2cncc(-c3cccc(C(=O)O)c3)n2)CC1`, for which the IC50 is above 100 µM.

In the case of `COCc1nc2cc(NCc3csc(C)n3)ccc2o1`, the IC50 is above 100 µM.

As for `COCc1nc2cc(NCc3ncc[nH]3)ccc2o1`, the IC50 is above 100 µM. `CC(C)N1CCC(Cc2cc(-c3ccccc3C(=O)O)ncn2)CC1`: the IC50 was above 100 µM. In turn, `CC(C)N1CCC(Cc2cc(-c3cccc(C(=O)O)c3)ncn2)C1` (stereo not given) had an IC50 above 100 µM. In turn, `CC(C)N1CCC(Cc2cnc(-c3cccc(C(=O)O)c3)cn2)C1` (stereo not given) showed an IC50 above 100 µM.

`CC(NC(=O)NCCNc1ccccn1)c1cccs1` (stereo not given) gave an IC50 above 100 µM. For `CC(C)C(NC(=O)Nc1ccccn1)c1cccs1` (stereo not given) the value was above 100 µM; for `CC(C)C(NC(=O)NCCNc1ncccn1)c1cccs1` (stereo not given), above 100 µM; for `CC(C)C(NC(=O)NCCNc1cnccn1)c1cccs1` (stereo not given), above 100 µM.

Turning to `Cc1nc(C)n(CC2CCCN(Cc3ncc(C(C)(C)C)o3)C2)n1` (stereo not given), the IC50 was above 100 µM. As for `CCC1CCCCN1Cc1ncc(C(C)(C)C)o1` (stereo not given), the IC50 was above 100 µM. `CCc1nnc(CN2CCCCC2Cn2nc(C)nc2C)o1` (stereo not given) had an IC50 above 100 µM. With `Cc1nc(C)n(CC2CCCCN2Cc2nc3ccccc3o2)n1` (stereo not given), the IC50 is above 100 µM.

The molecule `Cc1nc(C)n(CC2CCCN2Cc2ncc(C(C)(C)C)o2)n1` (stereo not given) had an IC50 above 100 µM. With `Cc1nc(C)n(CC2CCCCN2Cc2cnc(C)s2)n1` (stereo not given), the IC50 was above 100 µM. The value for `Cc1cnn(CC2CCCCN2Cc2ncc(C(C)(C)C)o2)c1` (stereo not given) was above 100 µM; that for `O=C(NCc1ccccc1Cn1cncn1)C1CCC1` was above 100 µM.

In turn, `O=C(NCc1ccccc1Cn1cncn1)C1CC1` showed an IC50 above 100 µM. Consider `O=C(NCc1ccccc1Cn1cncn1)C1CCCC1`, for which the IC50 was above 100 µM. Molecule `O=C(NCc1ccccc1Cn1cncn1)C1CCCCC1` gave an IC50 above 100 µM.

For `O=C(CCS(=O)(=O)C1CCCC1)NCc1ccccc1Cn1cncn1`, the IC50 is above 100 µM. With `O=C(CCNC(=O)C1CCCC1)NCc1ccccc1Cn1ccnc1`, the IC50 is above 100 µM. `O=C(CCC1CCCO1)NCc1ccccc1Cn1cncn1` (stereo not given) gave an IC50 above 100 µM. Take `CC(Cn1cccn1)NCCCc1nc(-c2cccs2)no1` (stereo not given): the IC50 was above 100 µM. `CC(Cn1cccn1)NCc1nc(-c2ccccn2)no1` (stereo not given) had an IC50 above 100 µM.

`Cc1cnn(CC(C)NCc2nc(-c3cccs3)no2)c1` (stereo not given) showed an IC50 above 100 µM. With `CC(Cn1cccn1)NCc1nc(-c2ccco2)no1` (stereo not given), the IC50 was above 100 µM. For the molecule `c1csc(-c2noc(CNCCn3cccn3)n2)c1`, the IC50 was above 100 µM. Turning to `CC(Cn1cccn1)NCc1nc(-c2ccsc2)no1` (stereo not given), the IC50 is above 100 µM. In turn, `CC(Cn1cccn1)NCc1nc(-c2ccccc2Cl)no1` (stereo not given) gave an IC50 above 100 µM.

Regarding `COc1ccc(OC)c(CNCc2ccnc(N3CCCCC3)c2)c1`, the IC50 is above 100 µM.

On to `COc1cc(CNCc2ccnc(N3CCCCC3)c2)cc(OC)c1`, for which the IC50 was above 100 µM. Molecule `CCOCC(O)CN1CCN(C(=O)c2ccc(N(C)C)nn2)CC1` (stereo not given) showed an IC50 above 100 µM.

Take `CN(C)c1ccc(C(=O)N2CCN(CC(O)C(C)(C)C)CC2)nn1` (stereo not given): the IC50 was above 100 µM. Take `CC(O)CN1CCN(C(=O)c2ccc(N3CCCC3)nn2)CC1` (stereo not given): the IC50 is above 100 µM.

For the molecule `CN(C)c1ccc(C(=O)N2CCN(CC(C)(C)O)CC2)nn1`, the IC50 is above 100 µM. Molecule `CCC(O)CN1CCN(C(=O)c2ccc(N(C)C)nn2)CC1` (stereo not given) gave an IC50 above 100 µM. Molecule `Cn1ccnc1CN1CCCN(C(=O)COCC2CC2)CC1` gave an IC50 above 100 µM.

The molecule `CC(Oc1ccccc1)C(=O)N1CCCN(Cc2nccn2C)CC1` (stereo not given) gave an IC50 above 100 µM. For `CSC(C)C(=O)N1CCCN(Cc2nccn2C)CC1` (stereo not given) the value was above 100 µM; for `CC(OCC1CC1)C(=O)N1CCCN(Cc2nccn2C(C)C)CC1` (stereo not given), above 100 µM; for `Cn1ccnc1CN1CCCN(C(=O)CC(C2CC2)C2CC2)CC1`, above 100 µM.

In turn, `CC(C)c1nc2n(n1)CC(NCc1nc(C3CC3)no1)CC2` (stereo not given) had an IC50 above 100 µM. `CCCc1nc(C)c(C(=O)NCCNc2ncccc2C#N)s1` had an IC50 above 100 µM. For `Cc1nc(C(C)(C)C)sc1C(=O)NCCNc1ncccc1C#N` the value was above 100 µM; for `Cc1ncsc1C(=O)NCCNc1ncccc1C#N`, above 100 µM. Take `CCc1nc(C)c(C(=O)NCCNc2ncccc2C#N)s1`: the IC50 was above 100 µM. Consider `Cc1ncc(C(=O)NCCNc2ncccc2C#N)s1`, for which the IC50 is above 100 µM.

The molecule `Cc1nc(C(C)C)sc1C(=O)NCCNc1ncccc1C#N` had an IC50 above 100 µM. For the molecule `Cc1nc(C)c(C(=O)NCCNc2ncccc2C(F)(F)F)s1`, the IC50 is above 100 µM. `CCCn1nc2c(cc1=O)CN(Cc1nnc(C3CC3)o1)CC2` gave an IC50 above 100 µM. Take `CC(C)n1nc2c(cc1=O)CN(Cc1nnc(C3CC3)o1)CC2`: the IC50 is above 100 µM. Regarding `CCn1nc2c(cc1=O)CN(Cc1nnc(C3CC3)o1)CC2`, the IC50 is above 100 µM. Consider `Cc1nc(C)n(CC2CCCCN2Cc2ncc(C(C)(C)C)o2)n1` (stereo not given), for which the IC50 is above 100 µM. Take `CC(NC(=O)NCCNc1ncccn1)c1cccs1` (stereo not given): the IC50 is above 100 µM.

`CC(C)C(NC(=O)NCCNc1ccccn1)c1cccs1` (stereo not given) showed an IC50 above 100 µM. Molecule `CC(C)(C)c1cnc(CN2CCC[C@H]2CO)o1` showed an IC50 above 100 µM. `Cc1nc(C)n(CC2CCCCN2Cc2nnc(C3CC3)o2)n1` (stereo not given) showed an IC50 above 100 µM.

As for `COc1ccc(CNCc2ccnc(N3CCOCC3)c2)cc1OC`, the IC50 was above 100 µM. The value for `COc1ccc(CNCc2ccc(N3CCCCC3)nc2)cc1OC` was above 100 µM. Consider `COc1ccc(CNCc2ccnc(N3CCCCC3)c2)cc1OC`, for which the IC50 was above 100 µM.

Molecule `CNS(=O)(=O)Cc1ccc(CNC(=O)Nc2cccnc2)cc1` had a half-inhibitory concentration (IC50) above 100 µM. For `COCCNc1ccc(CNC(=O)Nc2cn[nH]c2)cc1`, the IC50 was above 100 µM.

With `CC(O)CN1CCN(C(=O)c2ccc(N(C)C)nc2)CC1` (stereo not given), the IC50 is above 100 µM. With `CC(O)CN1CCN(C(=O)c2ccc(N(C)C)nn2)CC1` (stereo not given), the IC50 is above 100 µM. For `CC(C)c1nc2n(n1)CC(NCc1nnnn1C1CC1)CC2` (stereo not given) the value was above 100 µM; for `CC(C)c1nc2n(n1)CC(NCc1nnc(-c3ccco3)o1)CC2` (stereo not given), above 100 µM; for `Cc1nc(C)c(C(=O)NCCNc2ncccc2C#N)s1`, above 100 µM. For the molecule `Cc1ccc(C(=O)NCCNc2ncccc2C#N)c(=O)[nH]1`, the IC50 is above 100 µM. Take `COc1ccc(CNCc2ccnc(N3CCCC3)c2)c(OC)c1`: the IC50 is above 100 µM. For `COc1cc(CNCc2ccnc(N3CCCC3)c2)cc(OC)c1` the value was above 100 µM; for `O=C(Cc1ccsc1)N1C[C@@H]2COC[C@]2(COCc2cccnc2)C1`, above 100 µM. The value for `Cc1ccoc1C(=O)N1C[C@@H]2COC[C@]2(COCc2cccnc2)C1` was above 100 µM.

`Cc1ccccc1C(=O)N1C[C@@H]2COC[C@]2(COCc2cccnc2)C1` gave an IC50 above 100 µM. `O=C(c1ccccc1F)N1C[C@@H]2COC[C@]2(COCc2cccnc2)C1` had an IC50 above 100 µM. The value for `O=C(Cc1cccs1)N1C[C@@H]2COC[C@]2(COCc2cccnc2)C1` was above 100 µM; that for `CC[C@H]1N(CC2CCC2)CCC[C@]12CCC(=O)N2Cc1ccncc1` was above 100 µM. Take `CCCN1CCC[C@]2(CCC(=O)N2Cc2ccncc2)[C@H]1CC`: the IC50 is above 100 µM.

In the case of `CC[C@@H]1N(C)CCC[C@]12CCC(=O)N2Cc1ccncc1`, the IC50 was above 100 µM. The molecule `CC[C@H]1N(C)CCC[C@]12CCC(=O)N2Cc1ccncc1` gave an IC50 above 100 µM.
